Experiments:
Test in all cases: relative viability (nuclei count vs DMSO), 5 days (fraction); higher = more cells survive
YM155 + Vorinostat = compound: COCC[n+]1c2c(n(Cc3cnccn3)c1C)C(=O)c1ccccc1C2=O [YM155] + O=C(CCCCCCC(=O)Nc1ccccc1)NO [Vorinostat] (partner 1 µM)
Method in brief: (§1)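 Each reported value is a median over duplicate plates. It expresses relative viability: treated-well nuclei count divided by vehicle-well nuclei count. Lung cancer cell lines in 1536-well plates were dosed by pin tool a day after seeding, alone with one drug or with a fixed anchor-drug dose plus five library-drug doses (not always all listed) in √10 steps, and nuclei were counted after 5 days.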

YM155 + Olaparib = compound: COCC[n+]1c2c(n(Cc3cnccn3)c1C)C(=O)c1ccccc1C2=O [YM155] + O=C(c1cc(Cc2n[nH]c(=O)c3ccccc23)ccc1F)N1CCN(C(=O)C2CC2)CC1 [Olaparib] (partner 8 µM)
Method in brief: as §1

YM155 + Pemetrexed = compound: COCC[n+]1c2c(n(Cc3cnccn3)c1C)C(=O)c1ccccc1C2=O [YM155] + Nc1nc2[nH]cc(CCc3ccc(C(=O)N[C@@H](CCC(=O)O)C(=O)O)cc3)c2c(=O)[nH]1 [Pemetrexed] (partner 0.2 µM)
Method in brief: as §1

YM155 + Palbociclib = compound: COCC[n+]1c2c(n(Cc3cnccn3)c1C)C(=O)c1ccccc1C2=O [YM155] + CC(=O)c1c(C)c2cnc(Nc3ccc(N4CCNCC4)cn3)nc2n(C2CCCC2)c1=O [Palbociclib] (partner 0.5 µM)
Method in brief: as §1

Quizartinib = compound: CC(C)(C)c1cc(NC(=O)Nc2ccc(-c3cn4c(n3)sc3cc(OCCN5CCOCC5)ccc34)cc2)no1 [Quizartinib]
Method in brief: (§2)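 For viability, nuclei in each treated well were divided by nuclei in vehicle wells and the median across plates was taken. Lung cancer cell lines in 1536-well plates were pinned with five library-drug doses (not always all listed) spaced by √10, cultured 5 days without medium change, and imaged at 4× after Hoechst staining, with plates passing only at control CV below 25% and at least one doubling.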

YM155 = compound: COCC[n+]1c2c(n(Cc3cnccn3)c1C)C(=O)c1ccccc1C2=O [YM155]
Method in brief: as §2

NCI-H1648
relative viability (YM155 + Vorinostat; first compound 0.006325 µM): 0.386 | relative viability (YM155 + Vorinostat; first compound 0.02 µM): 0.565 | relative viability (YM155 + Vorinostat; first compound 0.06325 µM): 0.301 | relative viability (YM155 + Olaparib; first compound 0.006325 µM): 1.06 | relative viability (YM155 + Olaparib; first compound 0.02 µM): 0.6 | relative viability (YM155 + Olaparib; first compound 0.06325 µM): 0.762 | relative viability (YM155 + Pemetrexed; first compound 0.006325 µM): 0.97 | relative viability (YM155 + Pemetrexed; first compound 0.02 µM): 0.702 | relative viability (YM155 + Pemetrexed; first compound 0.06325 µM): 0.804 | relative viability (YM155 + Palbociclib; first compound 0.006325 µM): 0.299 | relative viability (YM155 + Palbociclib; first compound 0.02 µM): 0.306 | relative viability (YM155 + Palbociclib; first compound 0.06325 µM): 0.295 | relative viability (Quizartinib; 0.003162 µM): 0.756 | relative viability (Quizartinib; 0.01 µM): 0.81 | relative viability (Quizartinib; 0.03162 µM): 0.886 | relative viability (Quizartinib; 0.1 µM): 1.29 | relative viability (YM155; 0.002 µM): 0.748 | relative viability (YM155; 0.006325 µM): 1.11 | relative viability (YM155; 0.02 µM): 0.829 | relative viability (YM155; 0.06325 µM): 0.995
